Data: PubChem BioAssay (NCI)
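How tested: cells in 96-well plates exposed to compound for 48 hours at five concentrations. The concentration for full growth arrest is given as TGI.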

How the values were obtained:
Assay in all cases: NCI anticancer screen, dose series, 48 h
[1] = system: 786-0 renal
[2] = system: A498 renal
[3] = system: A549 NSCLC
[4] = system: ACHN renal
[5] = system: CCRF-CEM leukemia
[6] = system: COLO 205 colon
[7] = system: DMS 114 small cell lung
[8] = system: DMS 273 small cell lung
[9] = system: EKVX NSCLC
[10] = system: HCC-2998 colon
[11] = system: HCT-116 colon
[12] = system: HCT-15 colon
[13] = system: HL-60(TB) leukemia
[14] = system: HOP-62 NSCLC
[15] = system: HT29 colon
[16] = system: IGROV1 ovarian
[17] = system: K-562 leukemia
[18] = system: KM12 colon
[19] = system: KM20L2 colon
[20] = system: LOX IMVI melanoma
[21] = system: LXFL 529 NSCLC
[22] = system: M14 melanoma
[23] = system: M19-MEL melanoma
[24] = system: MALME-3M melanoma
[25] = system: MOLT-4 leukemia
[26] = system: NCI-H226 lung
[27] = system: NCI-H23 lung
[28] = system: NCI-H460 lung
[29] = system: NCI-H522 lung
[30] = system: OVCAR-3 ovarian
[31] = system: OVCAR-4 ovarian
[32] = system: OVCAR-5 ovarian
[33] = system: OVCAR-8 ovarian
[34] = system: RPMI-8226 leukemia
[35] = system: SF-268 CNS
[36] = system: SF-539 CNS
[37] = system: SK-MEL-2 melanoma
[38] = system: SK-MEL-28 melanoma
[39] = system: SK-MEL-5 melanoma
[40] = system: SK-OV-3 ovarian
[41] = system: SN12C renal
[42] = system: SNB-19 CNS
[43] = system: SNB-78 CNS
[44] = system: SR leukemia
[45] = system: SW-620 colon
[46] = system: TK-10 renal
[47] = system: U251 CNS
[48] = system: UACC-257 melanoma
[49] = system: UACC-62 melanoma
[50] = system: UO-31 renal
[51] = system: XF 498 CNS

Measured: TGI

CC(=O)NNc1nc(C)c(C(=O)NNC(=O)C(=O)Nc2ccc([N+](=O)[O-])cc2C#N)s1
> 100 µM: all assays above
